Measured values: US9056099B2, “Compositions and methods for treating viral diseases” (NovaDrug, LLC, priority 2010, dated 2015)

These molecules were tested on HCV (JFH-1) in Huh7-1 cells (assay: Assay for anti-HCV efficacy: JFH-1 HCV infection of Huh7-1 cultures, intracellular HCV RNA by RT-qPCR). Conditions: Compound Example 1 series; % viral titer at 5 μM or 15 μM; HCV-infected Huh7-1 cultures.
Assay type: cell-based, Hepatitis C virus
From the text: In the past, HCV studies involved mainly infected patients and chimpanzees. Recently, a robust HCV infection system was developed with cells derived from the Huh-7 human hepatoma cell line (see, for example, Yu et al., “Development of a cell-based hepatitis C virus infection fluorescent resonance energy transfer assay for high-throughput antiviral compound screening” Antimicrob Agents Chemother. 2009 53:4311-4319 for additional details regarding growing virus stocks, maintenance of the Huh-7 cells, infection parameters, and HCV titers determinations; and Yu & Uprichard “Cell-based hepatitis C virus infection fluorescence resonance energy transfer (FRET) assay for antiviral compound screening” Curr Protoc Microbiol. 2010; Chapter 17: Unit 17.5). Briefly, the assay is based on the unique JFH-1 HCV consensus cDNA derived from an HCV patient. Using reverse genetics, the infectious virus can be rescued from this HCV clone. The recovered viable JFH virus can be passaged serially in Huh-7 cells. For this reason, this system is amenable for testing the activity of potential drugs for their anti-HCV efficacy. The antiviral activity of the compounds described herein is tested in this system.
Initially, 6×10^3 Huh7-1 cells are incubated overnight in each well of collagen-coated BioCoat 96-well plates (BD Biosciences, Bedford, Mass.) in 0.2 mL 10% Medium composed of Dulbecco's modified Eagle's medium supplemented with 10% fetal bovine serum. Subsequently, at 2 day intervals, the cultures are replenished with fresh 0.2 mL 10% Medium. Once the cultures become confluent, they are continually replenished at 2 day intervals with fresh 0.2 mL 10% Medium that also includes 1% dimethyl sulfoxide (DMSO). After 20 days of these replenishments, the Huh7-1 cultures are incubated with fresh 1% Medium (same as 10% Medium except that the serum level is 1%) containing HCV at a multiplicity of infection (MOI) of 0.05 focus forming units (ffu)/cell. The HCV (JFH-1wt Huh7) stock titer is 1.5×10^5 ffu/mL. The next day (day 1 post-infection) and 2 days later (day 3 post-infection) the media are replenished with fresh 1% Medium containing the test compounds dissolved in DMSO. On the 5th day of treatment with the compounds, cell lysates are collected for RNA isolation and Real Time-quantitative Reverse Transcription Polymerase Chain Reaction (RT-qPCR) and culture media are collected for cytotoxicity analysis.
Total RNA is isolated from cells by the guanidine thiocyanate method using standard protocols. One μg RNA is used for cDNA synthesis using TaqMan reverse transcription reagents (Applied Biosystems, Foster City, Calif.) followed by real-time PCR using an Applied Biosystems 7300 real-time thermocycler. Illustrative thermal cycling consists of initial denaturation of 10 min at 95° C. followed by 40 cycles of denaturation (15 s at 95° C.) and annealing/extension (1 m at 60° C.). HCV and human glyceraldehyde-3-phosphate dehydrogenase (GAPDH) RNA levels are determined relative to a standard curve of serial dilutions of plasmid containing JFH-1 HCV or GAPDH cDNA. The PCR primers used to detect GAPDH and HCV are illustratively: GAPDH (NMX002046) 5′-GAAGGTGAAGGTCGGAGTC-3′ (SEQ ID NO: 5) (sense) and 5′-[…]-3′ (SEQ ID NO: 6) (anti-sense) JFH-1 HCV (AB047639) 5′-TCTGCGGAACCGGTGAGTA-3′ (SEQ ID NO: 7) (sense) and 5′-TCAGGCAGTACCACAAGGC-3′ (SEQ ID NO: 8) (anti-sense).
FIGS. 1-7 illustrate the intracellular HCV RNA levels when cultures are incubated with the selected test compounds at the doses shown. When HCV RNA levels are compared among the samples, the data may indicate that the compounds cause a dose dependent decrease in HCV RNA levels relative to the mock-treated (no compound added) HCV infected control.

Row | SMILES | Activity (viral titer)
1 | COc1cccc([C@H]2CN(C(=O)c3ccccc3)[C@@H]3CCN(Cc4cccc(F)c4)C[C@H]23)c1 | − (>60% viral titer at 15 μM (highest concentration tested))
2 | COc1ccc([C@H]2CN(C(=O)c3ccccc3)[C@@H]3CCN(Cc4ccsc4)C[C@H]23)cc1 | − (>60% viral titer at 15 μM (highest concentration tested))
3 | COc1cccc(C2CN(C(=O)c3ccccc3)C3CCN(Cc4ccccn4)CC23)c1 (stereo not drawn) | − (>60% viral titer at 15 μM (highest concentration tested))
4 | O=C(c1cccnc1)N1C[C@H](c2ccc(F)cc2)[C@H]2CN(Cc3ccccc3)CC[C@H]21 | ++ (≦60% viral titer at 5 μM)
5 | O=C(c1ccccn1)N1CC(c2ccc(F)cc2)C2CN(Cc3cccnc3)CCC21 (stereo not drawn) | − (>60% viral titer at 15 μM (highest concentration tested))
6 | COc1ccc(C2CN(C(=O)c3ccccc3)C3CCN(Cc4ccccc4F)CC23)cc1 (stereo not drawn) | ++ (≦60% viral titer at 5 μM)
7 | COc1ccc(C2CN(C(=O)c3ccccc3)C3CCN(Cc4cccs4)CC23)cc1 (stereo not drawn) | − (>60% viral titer at 15 μM (highest concentration tested))
8 | O=C(c1ccc(F)cc1)N1C[C@H](c2ccsc2)[C@H]2CN(Cc3cccs3)CC[C@H]21 | − (>60% viral titer at 15 μM (highest concentration tested))
9 | O=C(c1cccs1)N1CC(c2ccc(F)cc2)C2CN(Cc3ccccc3F)CCC21 (stereo not drawn) | + (≦60% viral titer at 15 μM)
10 | COc1cccc([C@H]2CN(C(=O)c3ccccc3)[C@@H]3CCN(Cc4ccccc4F)C[C@H]23)c1 | + (≦60% viral titer at 15 μM)
11 | Cc1cccc(CN2CCC3C(C2)C(c2ccsc2)CN3C(=O)c2ccccc2F)c1 (stereo not drawn) | ++ (≦60% viral titer at 5 μM)
12 | COc1ccc(CN2CC[C@@H]3[C@H](C2)[C@@H](c2ccc(F)cc2)CN3C(=O)c2ccccc2)cc1 | ++ (≦60% viral titer at 5 μM)
13 | O=C(c1ccccn1)N1CC(c2ccc(F)cc2)C2CN(Cc3ccccn3)CCC21 (stereo not drawn) | − (>60% viral titer at 15 μM (highest concentration tested))
14 | O=C(c1ccccc1F)N1C[C@H](c2ccsc2)[C@H]2CN(Cc3ccccn3)CC[C@H]21 | − (>60% viral titer at 15 μM (highest concentration tested))
15 | O=C(c1ccncc1)N1CC(c2ccc(F)cc2)C2CN(Cc3ccsc3)CCC21 (stereo not drawn) | − (>60% viral titer at 15 μM (highest concentration tested))
16 | O=C(c1ccccc1)N1CC(c2ccc(F)cc2)C2CN(Cc3ccccc3)CCC21 (stereo not drawn) | ++ (≦60% viral titer at 5 μM)
17 | Cc1ccccc1CN1CC[C@@H]2[C@H](C1)[C@@H](c1ccc(F)cc1)CN2C(=O)c1cccs1 | − (>60% viral titer at 15 μM (highest concentration tested))
18 | O=C(c1ccncc1)N1CC(c2ccc(F)cc2)C2CN(Cc3cccs3)CCC21 (stereo not drawn) | − (>60% viral titer at 15 μM (highest concentration tested))

Same assay, conditions: Compound Example 2 series; % viral titer at 5 μM or 15 μM; HCV-infected Huh7-1 cultures

Row | SMILES | Activity (viral titer)
19 | O=C(c1ccncc1)N1C[C@@H](c2ccc(F)cc2)[C@@H]2CN(Cc3ccccc3Cl)CC[C@@H]21 | +++ (≦30% viral titer at 5 μM)
20 | Cc1ccccc1CN1CC[C@H]2[C@@H](C1)[C@H](c1ccsc1)CN2C(=O)c1ccc(F)cc1 | − (>60% viral titer at 15 μM (highest concentration tested))
21 | O=C(c1ccccc1)N1C[C@@H](c2ccsc2)[C@@H]2CN(Cc3ccc(Cl)cc3)CC[C@@H]21 | ++ (≦60% viral titer at 5 μM)
22 | O=C(c1ccncc1)N1CC(c2ccsc2)C2CN(Cc3ccccc3)CCC21 (stereo not drawn) | − (>60% viral titer at 15 μM (highest concentration tested))
23 | O=C(c1ccncc1)N1CC(c2ccc(F)cc2)C2CN(Cc3cccc(F)c3)CCC21 (stereo not drawn) | − (>60% viral titer at 15 μM (highest concentration tested))
24 | COc1cccc(CN2CC[C@H]3[C@@H](C2)[C@H](c2ccc(F)cc2)CN3C(=O)c2cccnc2)c1 | + (≦60% viral titer at 15 μM)
25 | O=C(c1ccccc1)N1CC(c2ccsc2)C2CN(Cc3ccccc3)CCC21 (stereo not drawn) | ++ (≦60% viral titer at 5 μM)
26 | O=C(c1ccncc1)N1C[C@@H](c2ccc(F)cc2)[C@@H]2CN(Cc3ccc(F)cc3)CC[C@@H]21 | − (>60% viral titer at 15 μM (highest concentration tested))
27 | O=C(c1ccccn1)N1C[C@@H](c2ccc(F)cc2)[C@@H]2CN(Cc3ccc(F)cc3)CC[C@@H]21 | − (>60% viral titer at 15 μM (highest concentration tested))
28 | O=C(c1ccc(F)cc1)N1C[C@@H](c2ccsc2)[C@@H]2CN(Cc3ccncc3)CC[C@@H]21 | − (>60% viral titer at 15 μM (highest concentration tested))
29 | Cc1ccccc1CN1CCC2C(C1)C(c1ccc(F)cc1)CN2C(=O)c1ccncc1 (stereo not drawn) | − (>60% viral titer at 15 μM (highest concentration tested))
30 | Cc1ccc(CN2CCC3C(C2)C(c2ccsc2)CN3C(=O)c2ccc(F)cc2)cc1 (stereo not drawn) | − (>60% viral titer at 15 μM (highest concentration tested))
31 | Cc1nn(C)cc1CN1CCC2C(C1)C(c1ccc(F)cc1)CN2C(=O)c1ccccc1 (stereo not drawn) | + (≦60% viral titer at 15 μM)
32 | COc1ccccc1CN1CC[C@H]2[C@@H](C1)[C@H](c1ccsc1)CN2C(=O)c1ccccc1 | − (>60% viral titer at 15 μM (highest concentration tested))
33 | CC(C)c1ccc(CN2CC[C@H]3[C@@H](C2)[C@H](c2ccsc2)CN3C(=O)c2ccncc2)cc1 | − (>60% viral titer at 15 μM (highest concentration tested))
